The text below walks through data of patent publication EP0570112A1, “Cycloalkane derivatives” (ZENECA LIMITED, priority 1992, dated 1993).

In this experiment the target is T1, 5-LO (Homo sapiens, UniProt P09917).
T1 construct: incubating a test compound with heparinised human blood, prior to challenge with the calcium ionophore A23187; endogenous in cells; host or cells: blood cells of heparinised human whole blood
T1 sequence (P09917 1-674): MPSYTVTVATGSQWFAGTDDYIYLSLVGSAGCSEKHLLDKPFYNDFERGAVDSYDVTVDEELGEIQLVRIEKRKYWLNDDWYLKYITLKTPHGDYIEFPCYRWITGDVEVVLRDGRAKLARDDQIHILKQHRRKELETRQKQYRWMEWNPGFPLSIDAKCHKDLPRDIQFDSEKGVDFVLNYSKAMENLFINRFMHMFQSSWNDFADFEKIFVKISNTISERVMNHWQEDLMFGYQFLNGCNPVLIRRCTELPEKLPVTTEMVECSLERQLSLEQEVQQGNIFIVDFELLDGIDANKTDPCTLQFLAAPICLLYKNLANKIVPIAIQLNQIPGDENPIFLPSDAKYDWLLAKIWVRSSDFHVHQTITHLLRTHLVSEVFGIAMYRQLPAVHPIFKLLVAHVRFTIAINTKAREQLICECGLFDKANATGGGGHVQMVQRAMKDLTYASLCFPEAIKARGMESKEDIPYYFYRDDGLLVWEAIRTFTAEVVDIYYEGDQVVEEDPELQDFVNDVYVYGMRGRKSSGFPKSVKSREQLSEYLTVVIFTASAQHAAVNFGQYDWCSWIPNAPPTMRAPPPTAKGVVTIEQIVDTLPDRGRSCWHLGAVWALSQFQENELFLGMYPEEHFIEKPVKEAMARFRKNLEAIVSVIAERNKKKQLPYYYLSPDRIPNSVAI
Briefly: Test a): in vitro heparinised human blood challenged with calcium ionophore A23187, radioimmunoassay of LTB4. Type of experiment: cell-based. Particulars: A23187 challenge, read-out: IC₅₀ against LTB₄. From the text:
As stated previously, the compounds of the formula I are inhibitors of the enzyme 5-LO. […] J. Pharmacol. 1985, 84, 34P) which involve the use of a protein-LTB₄ conjugate produced using the procedure of Young et alia (Prostaglandins, 1983, 26(4), 605-613). The effects of a test compound on the enzyme cyclooxygenase (which is involved in the alternative metabolic pathway for arachidonic acid and gives rise to prostaglandins, thromboxanes and related metabolites) may be measured at the same time using the specific radioimmunoassay for thromboxane B₂(TxB₂) described by Carey and Forder (see above). This test provides an indication of the effects of a test compound against 5-LO and also cyclooxygenase in the presence of blood cells and proteins. It permits the selectivity of the inhibitory effect on 5-LO or cyclooxygenase to be assessed. • b) An ex vivo assay system, which is a variation of test a) above, involving administration to a group of rats of a test compound (usually orally as the suspension produced when a solution of the test compound in dimethylsulphoxide is added to carboxymethylcellulose), blood collection, heparinisation, challenge with A23187 and radioimmunoassay of LTB₄ and TxB₂. […]

In the case of `COC1(OC)CC[C@H](C)[C@H](c2cccc(OCc3ccc4c(ccc(=O)n4C)c3)c2)C1` (racemic) [Example 4, (3RS,4SR)-1,1-dimethoxy-4-methyl-3-[3-(1-methyl-2-oxo-1,2-dihydroquinolin-6-ylmethoxy)phenyl]cyclohexane], the IC50 was determined as 0.04 µM.

For `COC1CCC(C)C(c2cccc(OCc3ccc4c(ccc(=O)n4C)c3)c2)C1` (centres unmarked) [Example 2, 1-methoxy-4-methyl-3-[3-(1-methyl-2-oxo-1,2-dihydroquinolin-6-ylmethoxy)phenyl]cyclohexane], the IC50 was found to be 0.39 µM.
